Test results from ChEMBL document CHEMBL5236551, “Andrographolide and its derivatives: Current achievements and future perspectives” (Eur J Med Chem, 2021).
Converted amounts (≈) assume the structure as drawn. “And” between values parts separate entries of the source, which are not always exact repeats. Equal values may be shown once.

Legend:
Rattus norvegicus = experiment: Anti-inflammatory activity against egg white-induced paw edema in rat model assessed as detumescence rate measured after 6 hrs relative to control; assay type: functional
HCT-116 = experiment: Antiproliferative activity against human HCT-116 cells assessed as cell growth inhibition measured after 48 hrs by MTT assay; assay type: functional, cell-based; settings: HCT-116, 48 h
HK-2 = experiment: Antiproliferative activity against human HK-2 cells; assay type: functional, cell-based
[1] = Antimigratory activity against human LX2 cells assessed as inhibition rate relative to control; assay type: functional, LX-2
[2] = Inhibition of mesenchymal transformation in human A549 cells assessed as inhibition rate relative to control; assay type: functional
[3] = Antimigratory activity against human Cardiac fibroblast cells assessed as inhibition rate relative to control; assay type: functional
MDA-MB-231 = experiment: Antitumor activity against human MDA-MB-231 cells assessed as tumor growth inhibition; assay type: functional, cell-based
BT-549 = experiment: Antiproliferative activity against human BT-549 cells; assay type: functional, cell-based
MDA-MB-361 = experiment: Antitumor activity against human MDA-MB-361 cells assessed as tumor growth inhibition; assay type: functional, cell-based
T47D = experiment: Antiproliferative activity against human T47D cells; assay type: functional, cell-based
MCF7 = experiment: Cytotoxicity against human MCF7 cells; assay type: functional, cell-based
K562 = experiment: Antiproliferative activity against human K562 cells assessed as reduction in cell viability by MTT assay; assay type: functional, cell-based
KBM5 = experiment: Antiproliferative activity against human KBM5 cells assessed as reduction in cell viability by MTT assay; assay type: functional, cell-based
Staphylococcus aureus = experiment: Antibacterial activity against Staphylococcus aureus MTCC 96 assessed as bacterial growth inhibition by broth micro-dilution assay; assay type: functional
Chikungunya virus = experiment: Antiviral activity against Chikungunya virus; assay type: functional, organism-based
[4] = Antiviral activity against DENV2 infected in human HepG2 cells incubated for 1 hrs by plaque assay; assay type: functional, cell-based, dengue virus type 2; settings: Dengue virus, HepG2, 1 h
[5] = Antiviral activity against DENV2 infected in human HeLa cells incubated for 1 hrs by plaque assay; assay type: functional, cell-based, dengue virus type 2; settings: Dengue virus
enterovirus D68 = experiment: Antiviral activity against Enterovirus D68 infected in human RD cells assessed as inhibition of viral replication measured after 48 hrs by qRT-PCR analysis; assay type: functional, organism-based; settings: Enterovirus D
[6] = Antiviral activity against HIV infected in human MT2 cells; assay type: functional, cell-based; settings: Human immunodeficiency virus 1, MT2
[7] = test system: Human immunodeficiency virus; experiment: Antiviral activity against HIV infected in human C8166 cells; assay type: functional, organism-based

With `C=C1CC[C@@H]2[C@](C)(CO)[C@H](O)CC[C@@]2(C)[C@@H]1C/C=C1/C(=O)OC[C@H]1O` [ANDROGRAPHOLIDE] as the compound, how does the “inhibition (INH)” value (Rattus norvegicus) read?
The value was 74.42%.

What about the IC50 (HCT-116) of the same compound?
Its IC50 is 31.8 µM.

And the IC50 (HK-2)?
Its IC50 is 30.6 µM.

What about the “inhibition (INH)” value [1] of the same compound?
Its value is 15%.

And the “inhibition (INH)” value [2]?
Its value is 55%.

And the “inhibition (INH)” value [3]?
Its value is 35%.

What about the IC50 (MDA-MB-231) of the same compound?
The IC50 was 20.3 µM.

And the IC50 (BT-549)?
Its IC50 is 23.2 µM.

And the IC50 (MDA-MB-361)?
The IC50 was 31.5 µM.

And the IC50 (T47D)?
Its IC50 is 32.4 µM.

What about the IC50 (MCF7) of the same compound?
Its IC50 is 35.1 µM.

And the IC50 (K562)?
Its IC50 is 23.7 µM.

And the IC50 (KBM5)?
Its IC50 is 8.5 µM.

And the MIC (Staphylococcus aureus)?
The MIC was 100 µg/mL (≈ 285 µM).

And the IC50 (Chikungunya virus)?
Its IC50 is 0.6 µM.

And the IC50 [4]?
The IC50 was 21 µM.

And the IC50 [5]?
The IC50 was 23 µM.

And the IC50 (enterovirus D68)?
Its IC50 is 3.45 µM.

What about the IC50 [6] of the same compound?
Its IC50 is 140 µM.

What about the IC50 [7] of the same compound?
Its IC50 is 7.9 µM and 2.32 µM.
